Patent US20110027192A1, “SLIM-FIT FAT BURNING WATER” (priority 2008, published 2011)

Legend:
[1] = system: long chain fatty acid oxidation; conditions: oral supplementation, slightly overweight adults; cited from earlier work
adults = conditions: 1200 mg for a 60 kg person, 1993 GRAS expert committee; cited from earlier work
[2] = Solubility of L-carnitine in water (100-2000 mg per 16 oz); type: physicochemical; conditions: about 100 mg to about 2000 mg per 16 fluid ounces of water
Description: A pre-measured amount of L-carnitine was added into water at a final concentration range from about 100 mg to about 2000 mg per 16 fluid ounces (oz) of water.

[3] = system: long chain fatty acid oxidation; conditions: oral supplementation, healthy subjects; cited from earlier work
cells (mitochondria) = conditions: cited from earlier work

C[N+](C)(C)C[C@H](O)CC(=O)[O-].O=C(O)C(O)C(O)C(=O)O [L-Carnitine L-Tartrate]
long chain fatty acid oxidation [1]: increased long chain fatty acid oxidation
amount that can be safely ingested by adults (adults): 20 mg/kg/day

C[N+](C)(C)C[C@H](O)CC(=O)[O-].O=C([O-])CC(O)(CC(=O)[O-])C(=O)[O-].O=C([O-])CC(O)(CC(=O)[O-])C(=O)[O-].[Mg+2].[Mg+2].[Mg+2] [L-Carnitine Magnesium Citrate]
amount that can be safely ingested by adults (adults): 20 mg/kg/day

C[N+](C)(C)C[C@H](O)CC(=O)[O-] [L-carnitine]
solubility in the water [2]: completely soluble
long chain fatty acid oxidation as measured by 13CO2 exhalation [3]: improved long chain fatty acid oxidation
rate at which cells (mitochondria) burned fat (cells (mitochondria)): increased the rate
amount that can be safely ingested by adults (adults): 20 mg/kg/day
